Laboratory results reported in EPA's ToxValDB 9.5.
Values joined by “and” are separate entries in the source; they are usually repeats but may differ in a detail not shown here. Equal entries are not always repeated.

Columns and labels:
[1] = system: Canidae; details: oral, Beagle; for NOEL: subchronic, duration: 90 days; for LOEL: duration: 14 months, Re-emergence of haemolytic anaemia
[2] = system: Oryctolagus sp.; details: acute; dermal; occlusive; New Zealand
[3] = system: Rattus norvegicus; details: for LC50 / LD50: acute
[4] = system: Canidae; details: oral, Beagle
[5] = system: Canidae; details: chronic, oral, Dog Other
[6] = system: Rattus norvegicus; assay: LD0; higher = less toxic; details: acute
[7] = system: Mus musculus; details: acute
[8] = system: Rattus norvegicus; details: oral
[9] = system: Canidae; details: chronic, oral, M/F, Dog Other
[10] = system: Rattus norvegicus; details: oral; remark: listed apart in the source
[11] = system: Rattus norvegicus; details: chronic; duration: 2 years; oral; diet; Bladder: Hyperplasia
[12] = duration: 2 years, diet, increased serum alkaline phosphatase and liver weight, and hepatic lesions
[13] = subchronic, duration: 13 weeks, oral, diet
[14] = subchronic, duration: 13 weeks, diet
[15] = subchronic, duration: 13 weeks, diet, F, Crl
[16] = subchronic, duration: 13 weeks, diet, M, Crl
[17] = Decreased body weight gain, altered serum chemistry parameters (decreased serum cholesterol, total protein, and serum albumin and globulin …
[18] = Hershberger, duration: 10 days, gavage, Sprague-Dawley, active + Negative + Antiandrogenic + anti-androgenic + significant increase in liver wt at 100 / decrease in AST wt and serum Testosterone …

CC[C@@H](C(=O)O)[C@@H]1O[C@@H]([C@@H](C)[C@H](O)[C@H](C)C(=O)[C@H](CC)[C@H]2O[C@]3(C=C[C@@H](O)[C@]4(CC[C@@](C)([C@H]5CC[C@](O)(CC)[C@H](C)O5)O4)O3)[C@H](C)C[C@@H]2C)[C@@H](C)C[C@@H]1C [Narasin]
NOAEL ([1]; chronic, duration: 1 years, capsule, M/F, Minimal to slight peripheral nerve changes & focal skeletal muscle degeneration): 0.5 mg/kg-day

CO/N=C1\C[C@]2(C[C@@H]3C[C@@H](C/C=C(\C)C[C@@H](C)/C=C/C=C4\CO[C@@H]5[C@H](O)C(C)=C[C@@H](C(=O)O3)[C@]45O)O2)O[C@H](/C(C)=C/C(C)C)[C@H]1C [Moxidectin]
NOEL ([1]; diet, M/F, Decreased bodyweight & feed consumption): 0.3 mg/kg-day

CC(C)CC(C)(O)C#CC(C)(O)CC(C)C (stereo not drawn) [2,4,7,9-Tetramethyl-5-decyne-4,7-diol]
LD50 [2]: > 1000 mg/kg | LC50 ([3]; Inhalation): > 20 µg/mL | LD50 ([3]; dermal): > 2000 mg/kg | LD50 ([3]; oral, Sprague-Dawley): > 500 mg/kg | NOAEL ([3]; reproduction developmental, oral, diet, Sprague-Dawley, generation: F0): 500 mg/kg-day | NOAEL ([3]; reproduction developmental, oral, diet, Sprague-Dawley, generation: F1): 500 mg/kg-day | NOAEL ([3]; short-term, duration: 28 days, oral, diet): 5000 ppm | LOAEL ([4]; chronic, duration: 130 days): 200 mg/kg-day

CCNc1nc(Cl)nc(NC(C)(C)C#N)n1 [Cyanazine]
NOEL ([5]; duration: 1 years, diet, Blood: Altered clinical chemistry parameters + Blood: Increased platelet count + Whole body: Decreased weight): 0.625 mg/kg-day

Cl.c1ccc([C@H]2CN3CCSC3=N2)cc1 [Levamisole hydrochloride]
LOEL ([1]; chronic, capsule): 1.25 mg/kg-day | LOEL ([1]; immunotoxicology, capsule): 1.25 mg/kg-day

SCc1ccccc1 [Benzenemethanethiol]
LD0 ([6]; dermal, semiocclusive, Sprague-Dawley): ≥ 2000 mg/kg | LC50 ([7]; inhalation, Swiss): 904 mg/m3 | LD50 ([3]; injection, Intraperitoneal, Wistar): 373 mg/kg | LD50 ([3]; oral, gavage, Wistar): 493 mg/kg

CCC(CC)Nc1c([N+](=O)[O-])cc(C)c(C)c1[N+](=O)[O-] [Pendimethalin]
NOEL ([5]; duration: 2 years, capsule, Liver: Effects): 12.5 mg/kg-day | LEL ([8]; uterotrophic, duration: 3 days, Active): 300 mg/kg-day | LEL [9, 12]: 50 mg/kg-day | NOEL [9, 12]: 12.5 mg/kg-day

CCCCCCO [1-Hexanol]
LD50 ([7]; injection, intravenous): 100 mg/kg | LC50 ([3]; inhalation): > 21 µg/mL | NOAEL ([3]; developmental, inhalation, Sprague-Dawley): > 3500 mg/m3 | NOAEL ([3]; reproduction developmental, inhalation, F, Sprague-Dawley): > 3500 mg/m3 | LOAEL (% diet) [3, 13]: 1 | NOAEL (% diet) [3, 13]: > 0.5 | LOAEL (% diet) [4, 14]: 1 | NOAEL (% diet) [4, 14]: > 0.5 | NOAEL [10, 15]: 1240 mg/kg-day | NOEL [10, 15]: 1240 mg/kg-day | NOAEL [10, 16]: 1130 mg/kg-day | NOEL [10, 16]: 1130 mg/kg-day

O=C1c2ccccc2C(=O)N1SC(Cl)(Cl)Cl [Folpet]
NOEL ([5]; duration: 1 years, capsule, Blood: Altered chemistry + Whole body: Altered weight gain): 10 mg/kg-day | NOEL ([8]; Hershberger, duration: 10 days, gavage, Sprague-Dawley, inactive + Negative + Negative + neither + decrease in LABC and epididymis at 400 and 800 / decrease in liver and body wt (8% at 200 / 14…): 200 mg/kg-day | LEL [9, 17]: 60 mg/kg-day | NOEL [9, 17]: 10 mg/kg-day

CCCCN(CC)c1c([N+](=O)[O-])cc(C(F)(F)F)cc1[N+](=O)[O-] [Benfluralin]
NOAEL ([5]; duration: 1 years, diet, Erythrocytes: Decreased count): 25 mg/kg-day | LOEL [8, 18]: 400 mg/kg-day and 750 mg/kg-day | NOEL [8, 18]: 100 mg/kg-day and 250 mg/kg-day | LOAEL ([9]; reduced erythrocyte counts): 125 mg/kg-day | NOAEL ([9]; reduced erythrocyte counts): 25 mg/kg-day

O=S(=O)([O-])c1cc(Nc2nc(Nc3ccccc3)nc(N3CCOCC3)n2)ccc1C=Cc1ccc(Nc2nc(Nc3ccccc3)nc(N3CCOCC3)n2)cc1S(=O)(=O)[O-].[Na+].[Na+]
LD0 ([6]; dermal, semiocclusive, Wistar): > 2000 mg/kg | LD50 ([3]; oral, Sprague-Dawley): 7000 mg/kg | LD50 ([3]; oral, gavage, Sprague-Dawley): > 5000 mg/kg | NOAEL ([3]; chronic, duration: 24 months, oral, diet, F, Wistar): 791 mg/kg-day | NOAEL ([3]; chronic, duration: 24 months, oral, diet, M, Wistar): 524 mg/kg-day | NOAEL ([3]; short-term, duration: 14 days, oral, gavage, F, Wistar): 1000 mg/kg-day | NOAEL ([3]; short-term, duration: 14 days, oral, gavage, M, Wistar): 1000 mg/kg-day | NOAEL ([10]; short-term, duration: 28 days, gavage, Wistar): 825 mg/kg-day

CCC(=O)O.CCC(=O)O.O=C(Nc1cccc(C2=NCCN2)c1)Nc1cccc(C2=NCCN2)c1 [Imidocarb dipropionate]
NOEL ([1]; capsule, M/F, Transient reducting in food intake & histopathology in the liver): 5 mg/kg-day

O=C(O)c1ccc(C(=O)O)cc1 [Terephthalic acid]
LD0 ([6]; oral): 2000 mg/kg | NOEL [11]: 142 mg/kg-day
